This passage reports Activity results from ChEMBL document CHEMBL6103579, “Antiproliferative activity of selenium-enriched coumarin derivatives on the SK-N-SH neuroblastoma cell line: Mechanistic insights” (Eur J Med Chem, 2025).

Molecules are shown by their SMILES.

Series [1] can be described thus: Toxicity in female ICR mouse assessed as change in organ coefficient of lung at 20 mg/kg, ip […] (reference value: 0.007+/-0.001). In kind it is organism-based. The following applies: in vivo.
Series [2] concerns N2a. Nature of the series: Antitumor activity against mouse N2a cells implanted in female ICR mouse model assessed as change in body weight at 20 mg/kg, ip measured upto 8 days (reference value: 25.54 +/-2.19 g). It is filed as functional. The following applies: time <= 8 day.
The nature of series [3]: Toxicity in female ICR mouse assessed as change in organ coefficient of kidney at 20 mg/kg, ip […] (reference value: 0.007). It is filed as organism-based. The following applies: in vivo.
Series [4] is described as follows: Toxicity in female ICR mouse assessed as change in organ coefficient of heart at 20 mg/kg, ip […] (reference value: 0.006+/-0.002). It is filed as organism-based. The following applies: in vivo.
Series [5] can be described thus: Toxicity in female ICR mouse assessed as change in organ coefficient of liver at 20 mg/kg, ip […] (reference value: 0.058+/-0.010). In kind it is organism-based. The following applies: in vivo.
Series [6] concerns N2a. Nature of the series: Antitumor activity against mouse N2a cells implanted in female ICR mouse model assessed as reduction in tumor weight at 20 mg/kg, ip measured upto 8 days (reference value: 0.9 +/-0.26 g). In kind it is functional. The following applies: time <= 8 day.
Series [7] in a line: Toxicity in female ICR mouse assessed as change in organ coefficient of spleen at 20 mg/kg, ip […] (reference value: 0.006+/-0.002). It is filed as organism-based. The following applies: in vivo.
Series [8] deals with N2a. Description: Antitumor activity against mouse N2a cells implanted in female ICR mouse model assessed as tumor inhibition rate at 20 mg/kg, ip measured upto 8 days relative to control. Also noted: scale not given: the % may be the effect or the level left. In kind it is functional. The note with it: time <= 8 day.

`O=P1(N(CCCl)CCCl)NCCCO1` (stereo not drawn) [CYCLOPHOSPHAMIDE ANHYDROUS]: the Activity in series [1] is 0.007; with N2a [2], 27.2 g; in series [3], 0.007; in series [4] it was 0.006; in series [5] it was 0.059; in the series on N2a [6] it was 0.32 g. Besides, the Activity in series [7] is reported as 0.004; with N2a [8], 64.6%.
